Test results: patent US8802597B2, “Herbicidal pyrimidines” (E I du Pont de Nemours and Company, priority 2003, dated 2014)

Columns and labels:
Test in all cases: Test C pre/postemergence
Format in all cases: in vivo
[1] = system: morningglory (Ipomoea coccinea); settings: for Morningglory plant response rating: scale 0 to 100 (0 no effect, 100 complete control)
Procedure, shortened: (§1)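 Injury scored visually 12–14 days after application on 0–100 scale (100 = complete control), relative to controls. Compounds, formulated with surfactant in non-phytotoxic solvent, applied to soil at planting (pre) or to 1- to 4-leaf plants 2–18 cm tall (post) in greenhouse.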

[2] = system: common ragweed (Ambrosia elatior); settings: for Ragweed plant response rating: scale 0 to 100 (0 no effect, 100 complete control)
Procedure, shortened: as §1

[3] = system: common (oilseed) sunflower (Helianthus annuus); settings: Preemergence
Procedure, shortened: as §1

[4] = system: yellow nutsedge (Cyperus esculentus); settings: for Nutsedge, Yellow plant response rating: scale 0 to 100 (0 no effect, 100 complete control)
Procedure, shortened: as §1

[5] = system: velvetleaf (Abutilon theophrasti); settings: for Velvetleaf plant response rating: scale 0 to 100 (0 no effect, 100 complete control)
Procedure, shortened: as §1

[6] = system: pigweed (Amaranthus retroflexus); settings: for Pigweed plant response rating: scale 0 to 100 (0 no effect, 100 complete control)
Procedure, shortened: as §1

kochia (Kochia scoparia) = settings: for Kochia plant response rating: scale 0 to 100 (0 no effect, 100 complete control)
Procedure, shortened: as §1

[7] = system: woolly cupgrass (Eriochloa villosa); settings: for Cupgrass, Woolly plant response rating: scale 0 to 100 (0 no effect, 100 complete control)
Procedure, shortened: as §1

[8] = system: crabgrass (Digitaria sanguinalis); settings: for Crabgrass plant response rating: scale 0 to 100 (0 no effect, 100 complete control)
Procedure, shortened: as §1

[9] = system: eastern black nightshade (Solanum ptycanthum); settings: Preemergence
Procedure, shortened: as §1

[10] = system: cocklebur (Xanthium strumarium); settings: for Cocklebur plant response rating: scale 0 to 100 (0 no effect, 100 complete control)
Procedure, shortened: as §1

[11] = system: giant foxtail (Setaria faberii); settings: for Foxtail, Giant plant response rating: scale 0 to 100 (0 no effect, 100 complete control)
Procedure, shortened: as §1

[12] = Postemergence, 250 g ai/ha, scale 0 to 100
[13] = Postemergence, 500 g ai/ha, scale 0 to 100
[14] = Preemergence, 62 g ai/ha, scale 0 to 100, 0 no effect, 100 complete control
[15] = Preemergence, 125 g ai/ha, scale 0 to 100
[16] = Preemergence, 250 g ai/ha, scale 0 to 100
[17] = Preemergence, 500 g ai/ha, scale 0 to 100
[18] = 62 g ai/ha, scale 0 to 100, 0 no effect, 100 complete control

## CCCOC(=O)c1nc(C2CC2)nc(N)c1Br [Compound 15]
[1]; Postemergence, 62 g ai/ha
  Morningglory plant response rating: 90
[1]; Postemergence, 125 g ai/ha
  Morningglory plant response rating: 95
[1]; [12]
  Plant response rating, Morningglory: 100
[1]; [13]
  Plant response rating, Morningglory: 100
[1]; [14]
  Plant response rating, Morningglory: 95
[1]; [15]
  Plant response rating, Morningglory: 100
[1]; [16]
  Plant response rating, Morningglory: 100
[1]; [17]
  Plant response rating, Morningglory: 100
[2]; Postemergence, 62 g ai/ha
  Ragweed plant response rating: 75
[2]; Postemergence, 125 g ai/ha
  Ragweed plant response rating: 85
[2]; [12]
  Plant response rating, Ragweed: 90
[2]; [13]
  Plant response rating, Ragweed: 95
[2]; [14]
  Plant response rating, Ragweed: 90
[2]; [15]
  Plant response rating, Ragweed: 95
[2]; [16]
  Plant response rating, Ragweed: 100
[2]; [17]
  Plant response rating, Ragweed: 100
[3]; [18]
  Plant response rating, Sunflower: 65
[3]; 125 g ai/ha, scale 0 to 100
  Plant response rating, Sunflower: 100
[3]; 250 g ai/ha, scale 0 to 100
  Plant response rating, Sunflower: 100
[3]; 500 g ai/ha, scale 0 to 100
  Plant response rating, Sunflower: 100
[4]; Postemergence, 62 g ai/ha
  Nutsedge, Yellow plant response rating: 0
[4]; Postemergence, 125 g ai/ha
  Nutsedge, Yellow plant response rating: 0
[4]; [12]
  Plant response rating, Nutsedge, Yellow: 0
[4]; [13]
  Plant response rating, Nutsedge, Yellow: 0
[4]; [14]
  Plant response rating, Nutsedge, Yellow: 0
[4]; [15]
  Plant response rating, Nutsedge, Yellow: 0
[4]; [16]
  Plant response rating, Nutsedge, Yellow: 0
[4]; [17]
  Plant response rating, Nutsedge, Yellow: 20
[5]; Postemergence, 62 g ai/ha
  Velvetleaf plant response rating: 65
[5]; Postemergence, 125 g ai/ha
  Velvetleaf plant response rating: 70
[5]; [12]
  Plant response rating, Velvetleaf: 85
[5]; [13]
  Plant response rating, Velvetleaf: 90
[5]; [14]
  Plant response rating, Velvetleaf: 80
[5]; [15]
  Plant response rating, Velvetleaf: 95
[5]; [16]
  Plant response rating, Velvetleaf: 100
[5]; [17]
  Plant response rating, Velvetleaf: 100
[6]; Postemergence, 62 g ai/ha
  Pigweed plant response rating: 65
[6]; Postemergence, 125 g ai/ha
  Pigweed plant response rating: 70
[6]; [12]
  Plant response rating, Pigweed: 85
[6]; [13]
  Plant response rating, Pigweed: 100
[6]; [14]
  Plant response rating, Pigweed: 90
[6]; [15]
  Plant response rating, Pigweed: 100
[6]; [16]
  Plant response rating, Pigweed: 100
[6]; [17]
  Plant response rating, Pigweed: 100
Kochia (Kochia scoparia); Postemergence, 62 g ai/ha
  Kochia plant response rating: 95
Kochia (Kochia scoparia); Postemergence, 125 g ai/ha
  Kochia plant response rating: 95
Kochia (Kochia scoparia); [12]
  Plant response rating, Kochia: 100
Kochia (Kochia scoparia); [13]
  Plant response rating, Kochia: 100
Kochia (Kochia scoparia); [14]
  Plant response rating, Kochia: 95
Kochia (Kochia scoparia); [15]
  Plant response rating, Kochia: 100
Kochia (Kochia scoparia); [16]
  Plant response rating, Kochia: 100
Kochia (Kochia scoparia); [17]
  Plant response rating, Kochia: 100
[7]; Postemergence, 62 g ai/ha
  Cupgrass, Woolly plant response rating: 0
[7]; Postemergence, 125 g ai/ha
  Cupgrass, Woolly plant response rating: 50
[7]; [12]
  Plant response rating, Cupgrass, Woolly: 65
[7]; [13]
  Plant response rating, Cupgrass, Woolly: 75
[7]; [14]
  Plant response rating, Cupgrass, Woolly: 0
[7]; [15]
  Plant response rating, Cupgrass, Woolly: 20
[7]; [16]
  Plant response rating, Cupgrass, Woolly: 85
[7]; [17]
  Plant response rating, Cupgrass, Woolly: 95
[8]; Postemergence, 62 g ai/ha
  Crabgrass plant response rating: 15
[8]; Postemergence, 125 g ai/ha
  Crabgrass plant response rating: 45
[8]; [12]
  Plant response rating, Crabgrass: 65
[8]; [13]
  Plant response rating, Crabgrass: 80
[8]; [14]
  Plant response rating, Crabgrass: 0
[8]; [15]
  Plant response rating, Crabgrass: 95
[8]; [16]
  Plant response rating, Crabgrass: 95
[8]; [17]
  Plant response rating, Crabgrass: 100
[9]; [18]
  Plant response rating, Nightshade: 95
[9]; 125 g ai/ha, scale 0 to 100
  Plant response rating, Nightshade: 100
[9]; 250 g ai/ha, scale 0 to 100
  Plant response rating, Nightshade: 100
[9]; 500 g ai/ha, scale 0 to 100
  Plant response rating, Nightshade: 100
[10]; Postemergence, 62 g ai/ha
  Cocklebur plant response rating: 85
[10]; Postemergence, 125 g ai/ha
  Cocklebur plant response rating: 100
[10]; [12]
  Plant response rating, Cocklebur: 100
[10]; [13]
  Plant response rating, Cocklebur: 100
[10]; [14]
  Plant response rating, Cocklebur: 65
[10]; [15]
  Plant response rating, Cocklebur: 90
[10]; [16]
  Plant response rating, Cocklebur: 100
[10]; [17]
  Plant response rating, Cocklebur: 100
[11]; Postemergence, 62 g ai/ha
  Foxtail, Giant plant response rating: 45
[11]; Postemergence, 125 g ai/ha
  Foxtail, Giant plant response rating: 60
[11]; [12]
  Plant response rating, Foxtail, Giant: 65
[11]; [13]
  Plant response rating, Foxtail, Giant: 70
[11]; [14]
  Plant response rating, Foxtail, Giant: 0
[11]; [15]
  Plant response rating, Foxtail, Giant: 0
[11]; [16]
  Plant response rating, Foxtail, Giant: 65
[11]; [17]
  Plant response rating, Foxtail, Giant: 80
